Patent US20180303853A1, “COMPOSITIONS AND METHODS FOR TREATING BACTERIAL INFECTIONS USING CEFTAROLINE” (priority 2017, published 2018)

Key:
[1] = human, in vivo
[2] = tested on: community-acquired pneumonia (CAP); experiment: Example 4 Phase 3 study, ceftaroline vs ceftriaxone in CAP, efficacy; type: in vivo, human
Excerpt: (§1) The secondary objectives of the study were to evaluate the following: clinical response at end-of-therapy (EOT); the microbiological favorable outcome rate at TOC; the overall (clinical and radiographic) success rate at TOC; the clinical and microbiological response by pathogen at TOC; clinical relapse at late follow-up (LFU); microbiological reinfection/recurrence at LFU; and safety.
(§2) The following criteria were used for evaluation: The primary efficacy outcome measures were the pet-subject clinical cure rate at test-of-cure (TOC) in the CE and MITTE Populations Subjects were considered clinically cured at TOC if they had total resolution of all signs and symptoms of the baseline infection, or improvement of the infection such that no further antimicrobial therapy was necessary.
(§3) Non-inferiority was concluded if the lower limit of the 95% CI was higher than −10%.

[3] = human, in vivo; remark: listed apart in the source
Description: (§5) Study-Drug: Ceftaroline fosamil was administered in two consecutive 300 mg intravenous (IV) infusions over 30 minutes, every 12 hours (q12h). The 600-mg dose of ceftaroline fosamil infused over 60 minutes was split into two infusions in order to maintain the blind. For subjects with moderate renal impairment (30 ml/min<CrCl≤50 ml/min), as estimated by the Cockroft-Gault formula, unblinded pharmacy staff or unblinded study staff could adjust the dose of ceftaroline fosamil to two consecutive 200 mg infusions and readjust dose to two 300 mg infusions when renal function improved (CrCl>50 mL/min). The duration of treatment was between 5 to 7 days.
(§6) All subjects who received any amount of study drug were included in the safety analysis. Safety measures included monitoring for adverse events (AE) up to TOC and serious adverse events (SAE) through LFU; recording vital signs, physical examination, electrocardiogram (ECG), and clinical laboratory findings (clinical chemistry, hematology, and urinalysis), at prespecified times throughout the study.

[4] = Example 4 CAP study, safety
Description: as §5, §6

[5] = tested on: human plasma protein; type: in vitro ADME
[6] = Example 5 CAP study, safety
Description: Study drug: Ceftaroline fosamil was administered in two consecutive 300 mg intravenous (IV) infusions over 30 minutes, every 12 hours (q12h). The 600-mg dose of ceftaroline fosamil infused over 60 minutes was split into two infusions in order to maintain the blind. For subjects with moderate renal impairment (30 mL/min<CrCl≤50 mL/min), as estimated by the Cockroft-Gault formula, unblinded pharmacy staff or unblinded study staff could adjust the dose of ceftaroline fosamil to two consecutive 200 mg infusions and readjust dose to two 300 mg infusions when renal function improved (CrCl>50 mL/min). The duration of treatment was between 5 to 7 days.
All subjects initially received two doses (500 mg every 12 hours) of oral adjunctive therapy with clarithromycin following randomization.
All subjects who received any amount of study drug were included in the safety analysis. Safety measures included monitoring for adverse events (AE) up to TOC and serious adverse events (SAE) through LFU; recording vital signs, physical examination, electrocardiogram (ECG), and clinical laboratory findings (clinical chemistry, hematology, and urinalysis); at prespecified times throughout the study.

[7] = tested on: S. pneumoniae; experiment: Example 5 CAP study, outcome by baseline pathogen; type: in vivo
Excerpt: (§4) Per-pathogen clinical cure rate and favorable microbiological outcome rate at TOC in the mMITTE and ME Populations;

[8] = tested on: H. influenzae; experiment: Example 5 CAP study, outcome by baseline pathogen; type: in vivo
Excerpt: as §4

[9] = tested on: E. coli; experiment: Example 5 CAP study, outcome by baseline pathogen; type: in vivo
Excerpt: as §4

[10] = tested on: S. aureus; experiment: Example 5 CAP study, outcome by baseline pathogen; type: in vivo
Excerpt: as §4

[11] = tested on: H. parainfluenzae; experiment: Example 5 CAP study, outcome by baseline pathogen; type: in vivo
Excerpt: as §4

[12] = Excretion after single IV dose of radiolabeled ceftaroline fosamil in healthy male adults; type: in vivo, human; conditions: in vivo
Description: Following administration of a single 600 mg IV dose of radiolabeled ceftaroline fosamil to healthy male adults, approximately 87% of radioactivity was recovered in urine and 6% in feces. The majority of the radioactivity (˜90%) was recovered within 48 hours. Of the radioactivity recovered in urine, approximately 64% was excreted as ceftaroline and approximately 2% as ceftaroline-M-1.

[13] = tested on: CYP1A2, CYP2B6, CYP2C8, CYP2C9, CYP2CI9, or CYP3A4/5; experiment: CYP induction in human hepatocytes; type: in vitro ADME
[14] = human, microsomes
[15] = tested on: community-acquired pneumonia (CAP); experiment: Example 5 Phase 3 study, ceftaroline vs ceftriaxone with adjunctive clarithromycin in CAP, efficacy; type: in vivo, human
Excerpt: as §1, with “objective” for “objectives”, “was” for “were”, “following: the” for “following:”
as §2, with “The” for “The following criteria were used for evaluation: The”, “per-subject” for “pet-subject”, “TOC” for “test-of-cure (TOC)”, “Populations.” for “Populations”
as §3

[16] = tested on: Community-Acquired Bacterial Pneumonia (CABP); experiment: Two Phase 3 studies in CABP, clinical cure at TOC (single and integrated/combined); type: in vivo, human; conditions: TOC; for Combined clinical cure rate: combined data of the two CAP studies; for Weighted treatment difference (95% CI), ceftaroline versus ceftriaxone: combined data
Description: In both treatment groups of CABP Study 1, two doses of oral clarithromycin (500 mg q12 h), were administered as adjunctive therapy starting on Study Day 1. No adjunctive macrolide therapy was used in CABP Study 2. Patients with new or progressive pulmonary infiltrate(s) on chest radiography and clinical signs and symptoms consistent with CABP with the need for hospitalization and IV therapy were enrolled in the studies. Treatment duration was 5 to 7 days. A switch to oral therapy was not allowed. The Modified Intent-to-Treat Efficacy (MITTE) population, included all patients who received any amount of study drug according to their randomized, treatment group and were in PORT (Pneumonia Outcomes Research Team) Risk Class III or IV.
The primary efficacy endpoint was the clinical response at the Test of Cure (TOC) visit in the co-primary Ce and MITTE populations (Table 4).

## CCO/N=C(\C(=O)N[C@@H]1C(=O)N2C(C(=O)[O-])=C(Sc3nc(-c4cc[n+](C)cc4)cs3)CS[C@H]12)c1nsc(N)n1 [Ceftaroline, ceftaroline]
[1]
  change in exposure (Cmax and AUC) with concomitant CYP450 inhibitors, inducers, substrates: did nor identify any clinically relevant increases
[2]; Example 4, CE
  Difference (ceftaroline minus ceftriaxone), Clinical Cure Rate at EOT: 6.0%
  Difference (ceftaroline minus ceftriaxone), Clinical Success at TOC: 4.9%
[2]; Example 4, CE population
  Clinical Success at the TOC Visit: 193 (82.1) %
  Per-subject Clinical Cure Rate at the EOT Visit: 202 (86.0) %
[2]; Example 4, ME
  Difference (ceftaroline minus ceftriaxone), Favorable Microbiological Outcome at TOC: 1.8%
[2]; Example 4, ME population
  Favorable Microbiological Outcome at the TOC Visit: 72 (84.7) %
[2]; Example 4, MITTE
  Difference (ceftaroline minus ceftriaxone), Clinical Cure Rate at EOT: 7.4%
  Difference (ceftaroline minus ceftriaxone), Clinical Success at TOC: 5.9%
[2]; Example 4, MITTE population
  Clinical Success at the TOC Visit: 235 (81.3) %
  Per-subject Clinical Cure Rate at the EOT Visit: 249 (86.2) %
[2]; Example 4, mMITTE
  Difference (ceftaroline minus ceftriaxone), Favorable Microbiological Outcome at TOC: 0.4%
[2]; Example 4, mMITTE population
  Favorable Microbiological Outcome at the TOC Visit: 74 (82.2) %
[3]
  Adverse event: COPD: 8 (2.5) %
  Adverse event: Diarrhea: 12 (3.8) %
  Adverse event: Head ache: 11 (3.5) %
  Adverse event: Pleural effusion: 4 (1.3) %
  Adverse event: Pneumonia: 8 (2.5) %
  study-drug-related TEAE: alanine aminotransferase increased: 0.3%
  study-drug-related TEAE: blood creatinine phosphokinase increased: 1.3%
  study-drug-related TEAE: heartache: 0.6%
  subjects with any study-drug-related TEAEs: 12.4%
[4]
  hemolytic anemia: No evidence of hemolytic anemia
  incidence of deaths: 2.9%
[5]
  binding to human plasma protein: approximately 20%
[6]
  hemolytic anemia: No evidence of hemolytic anemia
  percentage of deaths: 1.7%
[7]; Example 5, ME
  Favorable Microbiological Outcome at TOC by Baseline Pathogen: 21/24 (87.5)
[7]; Example 5, ME Population
  Clinical Cure Rate at the TOC Visit by Baseline Pathogen: 21/24 (87.5)
[8]; Example 5, ME
  Favorable Microbiological Outcome at TOC by Baseline Pathogen: 2/3 (66.7)
[8]; Example 5, ME Population
  Clinical Cure Rate at the TOC Visit by Baseline Pathogen: 2/3 (66.7)
[9]; Example 5, ME
  Favorable Microbiological Outcome at TOC by Baseline Pathogen: 8/8 (100.0)
[9]; Example 5, ME Population
  Clinical Cure Rate at the TOC Visit by Baseline Pathogen: 8/8 (100.0)
[10]; Example 5, ME
  Favorable Microbiological Outcome at TOC by Baseline Pathogen: 8/10 (80.0)
[10]; Example 5, ME Population
  Clinical Cure Rate at the TOC Visit by Baseline Pathogen: 8/10 (80.0)
[11]; Example 5, ME
  Favorable Microbiological Outcome at TOC by Baseline Pathogen: 7/7 (100.0)
[11]; Example 5, ME Population
  Clinical Cure Rate at the TOC Visit by Baseline Pathogen: 7/7 (100.0)
[12]
  route of elimination: primarily eliminated by the kidneys
[13]
  induction of CYP isoenzymes: not inducers
[14]
  metabolic turnover: < 12%
[15]; Example 5, CE
  Difference (ceftaroline minus ceftriaxone), Clinical Cure Rate at EOT: 7.6%
  Difference (ceftaroline minus ceftriaxone), Clinical Success at TOC: 8.4%
[15]; Example 5, CE population
  Clinical Success at the TOC Visit: 194 (86.6) %
  Per-subject Clinical Cure Rate at the EOT Visit: 197 (87.9) %
[15]; Example 5, ME
  Difference (ceftaroline minus ceftriaxone), Favorable Microbiological Outcome at TOC: 11.0%
[15]; Example 5, ME population
  Favorable Microbiological Outcome at the TOC Visit: 62 (89.9) %
[15]; Example 5, MITTE
  Difference (ceftaroline minus ceftriaxone), Clinical Cure Rate at EOT: 6.3%
  Difference (ceftaroline minus ceftriaxone), Clinical Success at TOC: 6.2%
[15]; Example 5, MITTE population
  Clinical Success at the TOC Visit: 244 (83.8) %
  Per-subject Clinical Cure Rate at the EOT Visit: 253 (86.9) %
[15]; Example 5, mMITTE
  Difference (ceftaroline minus ceftriaxone), Favorable Microbiological Outcome at TOC: 9.3%
[15]; Example 5, mMITTE population
  Favorable Microbiological Outcome at the TOC Visit: 66 (88.0) %
[16]; CE
  Combined clinical cure rate: 387/459 (84.3) %
  Weighted treatment difference (95% CI), ceftaroline versus ceftriaxone: 6.7 (1.6, 11.8) %
[16]; ME
  Combined clinical cure rate: 131/154 (85.1) %
  Weighted treatment difference (95% CI), ceftaroline versus ceftriaxone: 9.7 (0.7, 18.8) %
[16]; MITTE
  Combined clinical cure rate: 479/580 (82.6) %
  Weighted treatment difference (95% CI), ceftaroline versus ceftriaxone: 6.0 (1.4, 10.7) %
[16]; mMITTE
  Combined clinical cure rate: 138/165 (83.6) %
  Weighted treatment difference (95% CI), ceftaroline versus ceftriaxone: 8.7 (−0.0, 17.4) %
[16]; CE, listed as ceftaroline
  Weighted treatment difference (95% CI), ceftaroline versus ceftriaxone: 6.7%
[16]; ME, listed as ceftaroline
  Weighted treatment difference (95% CI), ceftaroline versus ceftriaxone: 9.7%
[16]; mMITTE, listed as ceftaroline
  Weighted treatment difference (95% CI), ceftaroline versus ceftriaxone: 8.7%
